Patent publication US12618095B2, “Medium for Bacillus cereus group detection” (SHIMADZU DIAGNOSTICS CORPORATION, priority 2020, dated 2026)

Columns and labels:
Experiment in all cases: Test Example 10: agar medium with aztreonam or ceftazidime
B. cereus = conditions: 22 hours
E. coli = format: cell-based; conditions: 22 hours; for Number of colonies: ATCC8739
B. thuringiensis = conditions: NBRC101235, 22 hours
E. amnigenus = conditions: 22 hours; for Number of colonies: ATCC33072
[1] = Ceftazidime 0.05 mg, 10^1 cfu/mL
[2] = Ceftazidime 0.05 mg, 10^2 cfu/mL
[3] = Ceftazidime 0.05 mg, 10^3 cfu/mL
[4] = Ceftazidime 0.05 mg, 10^4 cfu/mL
[5] = Ceftazidime 0.05 mg, 10^5 cfu/mL
[6] = Ceftazidime 0.5 mg, 10^1 cfu/mL
[7] = Ceftazidime 0.5 mg, 10^2 cfu/mL
[8] = Ceftazidime 0.5 mg, 10^3 cfu/mL
[9] = Ceftazidime 0.5 mg, 10^4 cfu/mL
[10] = Ceftazidime 0.5 mg, 10^5 cfu/mL

In the case of CC(C)(O/N=C(\C(=O)N[C@@H]1C(=O)N2C(C(=O)[O-])=C(C[n+]3ccccc3)CS[C@H]12)c1csc(N)n1)C(=O)O [ceftazidime], the Number of colonies (B. cereus; ATCC11778, Ceftazidime 0.05 mg, 10^1 cfu/mL) is reported as 2, the Number of colonies (B. cereus; ATCC11778, Ceftazidime 0.05 mg, 10^2 cfu/mL) is reported as 11 and the Number of colonies (B. cereus; ATCC11778, Ceftazidime 0.05 mg, 10^3 cfu/mL) is reported as “+”. For the same compound, the Number of colonies (B. cereus; ATCC11778, Ceftazidime 0.05 mg, 10^4 cfu/mL) was “+”, the Number of colonies (B. cereus; ATCC11778, Ceftazidime 0.05 mg, 10^5 cfu/mL) was “+” and the Number of colonies (B. cereus; ATCC11778, Ceftazidime 0.5 mg, 10^1 cfu/mL) was “−”. For the same compound, the Number of colonies (B. cereus; ATCC11778, Ceftazidime 0.5 mg, 10^2 cfu/mL) was 13, the Number of colonies (B. cereus; ATCC11778, Ceftazidime 0.5 mg, 10^3 cfu/mL) was “+” and the Number of colonies (B. cereus; ATCC11778, Ceftazidime 0.5 mg, 10^4 cfu/mL) was “+”. The Number of colonies (B. cereus; ATCC11778, Ceftazidime 0.5 mg, 10^5 cfu/mL) was “+”, the Number of colonies (B. cereus; ATCC11778, Ceftazidime 5 mg, 10^1 cfu/mL) was “−” and the Number of colonies (B. cereus; ATCC11778, Ceftazidime 5 mg, 10^2 cfu/mL) was 17. The Number of colonies (B. cereus; ATCC11778, Ceftazidime 5 mg, 10^3 cfu/mL) was “+”, the Number of colonies (B. cereus; ATCC11778, Ceftazidime 5 mg, 10^4 cfu/mL) was “+” and the Number of colonies (B. cereus; ATCC11778, Ceftazidime 5 mg, 10^5 cfu/mL) was “+”. For the same compound, the Number of colonies (B. cereus; ATCC19637, Ceftazidime 0.05 mg, 10^1 cfu/mL) was “−”, the Number of colonies (B. cereus; ATCC19637, Ceftazidime 0.05 mg, 10^2 cfu/mL) was 7 and the Number of colonies (B. cereus; ATCC19637, Ceftazidime 0.05 mg, 10^3 cfu/mL) was “+”. For the same compound, the Number of colonies (B. cereus; ATCC19637, Ceftazidime 0.05 mg, 10^4 cfu/mL) was “+”, the Number of colonies (B. cereus; ATCC19637, Ceftazidime 0.05 mg, 10^5 cfu/mL) was “+” and the Number of colonies (B. cereus; ATCC19637, Ceftazidime 0.5 mg, 10^1 cfu/mL) was “−”. For the same compound, the Number of colonies (B. cereus; ATCC19637, Ceftazidime 0.5 mg, 10^2 cfu/mL) was 12, the Number of colonies (B. cereus; ATCC19637, Ceftazidime 0.5 mg, 10^3 cfu/mL) was “+” and the Number of colonies (B. cereus; ATCC19637, Ceftazidime 0.5 mg, 10^4 cfu/mL) was “+”. For the same compound, the Number of colonies (B. cereus; ATCC19637, Ceftazidime 0.5 mg, 10^5 cfu/mL) was “+”, the Number of colonies (B. cereus; ATCC19637, Ceftazidime 5 mg, 10^1 cfu/mL) was 3 and the Number of colonies (B. cereus; ATCC19637, Ceftazidime 5 mg, 10^2 cfu/mL) was 5. For the same compound, the Number of colonies (B. cereus; ATCC19637, Ceftazidime 5 mg, 10^3 cfu/mL) was “+”, the Number of colonies (B. cereus; ATCC19637, Ceftazidime 5 mg, 10^4 cfu/mL) was “+” and the Number of colonies (B. cereus; ATCC19637, Ceftazidime 5 mg, 10^5 cfu/mL) was “+”. For the same compound, the Number of colonies (E. coli; [1]) was “−”, the Number of colonies (E. coli; [2]) was “−” and the Number of colonies (E. coli; [3]) was “−”. The Number of colonies (E. coli; [4]) was “−”, the Number of colonies (E. coli; [5]) was “−” and the Number of colonies (E. coli; [6]) was “−”. The Number of colonies (E. coli; [7]) was “−”, the Number of colonies (E. coli; [8]) was “−” and the Number of colonies (E. coli; [9]) was “−”. For the same compound, the Number of colonies (E. coli; [10]) was “−”, the Number of colonies (E. coli; Ceftazidime 5 mg, 10^1 cfu/mL) was “−” and the Number of colonies (E. coli; Ceftazidime 5 mg, 10^2 cfu/mL) was “−”. The Number of colonies (E. coli; Ceftazidime 5 mg, 10^3 cfu/mL) was “−”, the Number of colonies (E. coli; Ceftazidime 5 mg, 10^4 cfu/mL) was “−” and the Number of colonies (E. coli; Ceftazidime 5 mg, 10^5 cfu/mL) was “−”. The “formation of a white colony” value (E. coli; added to TSA-BC, 30° C.) was “suppressed”, the Number of colonies (B. thuringiensis; [1]) was 5 and the Number of colonies (B. thuringiensis; [2]) was 13. The Number of colonies (B. thuringiensis; [3]) was “+”, the Number of colonies (B. thuringiensis; [4]) was “+” and the Number of colonies (B. thuringiensis; [5]) was “+”. The Number of colonies (B. thuringiensis; [6]) was 3, the Number of colonies (B. thuringiensis; [7]) was 10 and the Number of colonies (B. thuringiensis; [8]) was “+”. The Number of colonies (B. thuringiensis; [9]) was “+”, the Number of colonies (B. thuringiensis; [10]) was “+” and the Number of colonies (B. thuringiensis; Ceftazidime 5 mg, 10^1 cfu/mL) was 4. For the same compound, the Number of colonies (B. thuringiensis; Ceftazidime 5 mg, 10^2 cfu/mL) was 16, the Number of colonies (B. thuringiensis; Ceftazidime 5 mg, 10^3 cfu/mL) was “+” and the Number of colonies (B. thuringiensis; Ceftazidime 5 mg, 10^4 cfu/mL) was “+”. The Number of colonies (B. thuringiensis; Ceftazidime 5 mg, 10^5 cfu/mL) was “+”, the Number of colonies (E. amnigenus; [1]) was “−” and the Number of colonies (E. amnigenus; [2]) was “−”. The Number of colonies (E. amnigenus; [3]) was 1, the Number of colonies (E. amnigenus; [4]) was 33 and the Number of colonies (E. amnigenus; [5]) was “+”. The Number of colonies (E. amnigenus; [6]) was “−”, the Number of colonies (E. amnigenus; [7]) was “−” and the Number of colonies (E. amnigenus; [8]) was “−”. For the same compound, the Number of colonies (E. amnigenus; [9]) was “−”, the Number of colonies (E. amnigenus; [10]) was “−” and the Number of colonies (E. amnigenus; Ceftazidime 5 mg, 10^1 cfu/mL) was “−”. For the same compound, the Number of colonies (E. amnigenus; Ceftazidime 5 mg, 10^2 cfu/mL) was “−”, the Number of colonies (E. amnigenus; Ceftazidime 5 mg, 10^3 cfu/mL) was “−” and the Number of colonies (E. amnigenus; Ceftazidime 5 mg, 10^4 cfu/mL) was “−”. The Number of colonies (E. amnigenus; Ceftazidime 5 mg, 10^5 cfu/mL) was “−” and the “formation of a white colony” value (E. amnigenus; added to TSA-BC, 30° C.) was “suppressed”.
